From US20160220710A1, “COMPOSITIONS AND METHODS FOR DELIVERING PHARMACEUTICAL AGENTS” (THE REGENTS OF THE UNIVERSITY OF MICHIGAN, priority 2015, published 2016)

Assays:
IL-1RA, TNFα, IL-1β = experiment: Serum cytokines of CFZ-treated mice; assay type: in vivo
Protocol: Clofazimine (CFZ, Sigma-Aldrich, C8895) was prepared in sesame oil (Shirakiku, Japan, or Roland, China) and Powdered Lab Diet 5001 (PMI International, Inc., St. Louis, Mo.) and orally administrated to Wild-type (WT) C57BL/6 mice or IL-1RA^−/− (4-5 week old, Jackson Laboratory, Bar Harbor, Me.) for up to 8 weeks ad libitum as previously described (Baik et al., 2013, supra; Baik et al., 2011, supra). Control mice were fed with the same diet without CFZ. The animal protocol was approved by the University of Michigan's Animal Care and Use Committee in accordance with the National Institutes of Health guidelines (UCUCA #PRO0005111).
Mouse Bronchoalveolar Lavage (BAL) Harvest and Isolation of Alveolar Macrophages, Immunohistochemistry and Imaging, SDS-PAGE and Western Blot, Cytokine Measurements

[1] = humans; cited from earlier work
TLR2 = experiment: TNFα ELISA after Pam3 stimulation; assay type: cell-based, murine; settings: Pam3, 2 and 4 μM
Protocol: (§1) The murine macrophage cell line RAW 264.7 was purchased from ATCC (Manassas, Va.) and maintained in DMEM (Life Technologies, Carlsbad, Calif.) supplemented with 10% FBS. Soluble CFZ or isolated CLDIs were added at various concentrations in DMEM with 5% FBS to 6-well plates containing 4×10^5 cells/well and incubated (24 h at 37° C. and 5% CO2). Culture supernatants were harvested at 24 h, centrifuged (1500×g for 5 min), and stored (−20° C.) in frozen aliquots prior to analysis. For experiments involving TLR stimulation, cells were washed twice with pre-warmed DPBS to remove extracellular, non-phagocytosed CLDIs or CFZ, and then the cells were serum-starved for 18 h in DMEM. Supernatants were collected from unstimulated cells and cells stimulated with 200 ng/ml Pam3 or 1 μg/ml LPS in DMEM.
The media of cells with or without 6 h TLR stimulation by Pam3 or LPS was harvested, and TNFα and IL-1RA levels were measured by ELISA (Duoset, R&D Systems, Minneapolis, Minn.) in duplicate wells according to the manufacturer's instructions. The cytokine concentrations were expressed as picogram per milligram of cell lysate. Experiments were repeated three times and values are expressed as the mean±SD.

Akt = experiment: Western blot of Akt phosphorylated at Ser473; assay type: cell-based, murine; settings: RAW 264.7 cells, 24 h
Protocol: as §1

[2] = system: caspase 1, IL-1β, TNFα, IL-1RA; experiment: Inflammasome proteins and cytokines in organs of CFZ-treated mice; assay type: in vivo
Protocol: Clofazimine (CFZ, Sigma-Aldrich, C8895) was prepared in sesame oil (Shirakiku, Japan, or Roland, China) and Powdered Lab Diet 5001 (PMI International, Inc., St. […] Baik et al., 2011, supra). Control mice were fed with the same diet without CFZ. The animal protocol was approved by the University of Michigan's Animal Care and Use Committee in accordance with the National Institutes of Health guidelines (UCUCA #PRO0005111). Mouse Bronchoalveolar Lavage (BAL) Harvest and Isolation of Alveolar Macrophages, Immunohistochemistry and Imaging, SDS-PAGE and Western Blot, Cytokine Measurements

[3] = system: caspase-3 and PARP cleavage; experiment: Western blot of caspase 3, cleaved caspase 3 and cleaved PARP; assay type: cell-based, murine; settings: 4 and 10 μM, 24 h
[4] = 2 weeks of oral drug administration

## CC(C)/N=c1\cc2n(-c3ccc(Cl)cc3)c3ccccc3nc-2cc1Nc1ccc(Cl)cc1 [CFZ, 3-(p-chloroanilino)-10-(p-chlorophenyl)-2, 10-dihydro-2-isopropyliminophenazine]
IL-1RA, TNFα, IL-1β; 8 weeks
  serum IL-1RA levels: increase in serum IL-1RA levels
IL-1RA, TNFα, IL-1β; all conditions
  TNFα or IL-1β in the serum: not possible to detect
[1]
  pharmacokinetic half-life t1/2: ~70 days
TLR2
  Pam3/TLR2-mediated TNFα production: Pam3/TLR2-mediated TNFα production was not affected
Akt
  phosphorylation of Akt: minimally affected phosphorylation of Akt
[2]; 2 and 8 weeks, except liver at 2 weeks
  TNFα expression in organs: unchanged by CFZ at both 2 and 8 weeks
[2]; 2 weeks of CFZ
  cleavage of hepatic caspase 1 and IL-1β: only moderate cleavage of hepatic caspase 1 and IL-1β
[2]; [4]
  IL-1RA in the liver: did not cause significant IL-1RA change in the liver
  spleen and lung IL-1RA levels: slightly increased
[2]; 8 weeks
  IL-1RA levels in the kidney: unchanged
[2]; 8 weeks of CFZ
  hepatic caspase 1 cleavage and IL-1β maturation: significantly reduced
[2]; 8 weeks of oral administration
  IL-1RA expression in liver, spleen and lung: major upregulation of IL-1RA expression
[2]; mouse, in vivo
  IL-1β levels in the spleen, lung and kidney: did not change
[3]
  PARP cleavage: increased PARP cleavage
